In patent publication US5910575A, “Immunoassay and monoclonal antibodies for urinary cortisol” (Immunotech, priority 1995, dated 1999):

Key:
[1] = biological target: anti-cortisol monoclonal antibody Immu 482, obtained against the immunogen cortisol-3-CMO (syn)-BSA; test: Displacement of the cortisol-3-CMO (anti)-[125I] iodohistamine tracer from the monoclonal antibody (liquid phase radioimmunoassay); type: binding, mouse
Procedure: (§1) Selection is carried out by a liquid phase radioimmunoassay technique starting with the culture supernatant. The supernatants possibly containing anti-cortisol antibodies are incubated with a solution of radioactive cortisol (tritiated cortisol or cortisol derivative labelled with radioactive iodine: cortisol-3-CMO (anti)-[^125 I] iodohistamine). If anti-cortisol antibodies are present, they will bind the radioactive steroid. After incubation with charcoal-dextran and centrifugation to remove the free radioactivity and all the small molecules not fixed to the antibodies, a sample of the supernatant (bound fraction) is removed and counted.
(§2) The affinities of the monoclonal antibodies are measured by displacement of the cortisol-3-CMO (anti)-[^125 I] iodohistamine tracer with the two labelling precursors: cortisol-3-CMO (anti)-histamine and cortisol-3-CMO (syn)-histamine. The affinity is estimated (in the form of the IC50 value) according to the concentration displacing half of the tracer, since the tracer is present in a small quantity compared with the other constituents.

[2] = biological target: anti-cortisol monoclonal antibody Immu 473 (IMMU-473, CNCM I-1532), obtained against the immunogen cortisol-3-CMO (syn)-BSA; test: as above; type: binding, mouse
Procedure: as §1, §2

[3] = tracer cortisol-3-CMO (anti)-[125I] iodohistamine, concentration displacing half of the tracer
[4] = IC50 of cortisol-3-CMO (anti)-histamine divided by IC50 of cortisol-3-CMO (syn)-histamine

SMILES | Displacement of the tracer by Cortisol-3-CMO (anti)-histamine IC50 [1, 3] [ng/mL] | Displacement of the tracer by Cortisol-3-CMO (anti)-histamine IC50 [2, 3] [ng/mL] | Ratio IC50 anti/IC50 syn [1, 4] | Displacement of the tracer by Cortisol-3-CMO (syn)-histamine IC50 [1, 3] [ng/mL] | Ratio IC50 anti/IC50 syn [2, 4] | Displacement of the tracer by Cortisol-3-CMO (syn)-histamine IC50 [2, 3] [ng/mL]
C[C@]12CC/C(=N\OCC(=O)NCCc3c[nH]cn3)C=C1CC[C@@H]1[C@@H]2[C@@H](O)C[C@@]2(C)[C@H]1CC[C@]2(O)C(=O)CO [Cortisol-3-CMO (anti)-histamine, cortisol-3-carboxymethyloxime (anti)-histamine] | 0.468 | 0.496 |  |  |  | 
C[C@]12CC/C(=N/OCC(=O)NCCc3c[nH]cn3)C=C1CC[C@@H]1[C@@H]2[C@@H](O)C[C@@]2(C)[C@H]1CC[C@]2(O)C(=O)CO [Cortisol-3-CMO (syn)-histamine, cortisol-3-carboxymethyloxime (syn)-histamine] |  |  | 2.66 | 0.176 | 2.73 | 0.182
